Laboratory results taken from PubChem BioAssay AID1259411 (Chemical Carcinogenesis Research Information System (CCRIS), 2018).
The source made the active and inactive calls. How the calls were made is not given here.

Tested on: rodent carcinogenicity bioassays, tumor incidence
Assay: CCRIS carcinogenicity studies
Conditions: Dose: 0, Dose: 0
Method in brief: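 Archive of carcinogenicity, mutagenicity, tumor promotion and tumor inhibition results drawn from journals, NCI reports and other sources, expert-reviewed; covers 1985-2011 and is no longer updated.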

CN(CCCC(=O)c1cccnc1)N=O
carcinogen call (Species: HAMSTER, Strain/Sex: SYRIAN/FEMALE, Route: INTRATRACHEAL, 0.05, 5, 50 MG/KG ONCE ADMINISTERED TO MOTHERS ON DAY 15 OF GESTATION (STUDY DURATION: 59 WK), 0.05, 5, 50 MG/KG ONCE ADMINISTERED TO MOTHERS ON DAY 15 OF GESTATION (STUDY DURATION: 59 WK), Tumor Site: Type of Lesion: NASAL CAVITY: ADENOCARCINOMA, ADRENAL GLAND: TUMOR, PANCREAS: ADENOMA, Tumor Site: Type of Lesion: NASAL CAVITY: ADENOCARCINOMA, ADRENAL GLAND: TUMOR, PANCREAS: ADENOMA): active; positive | carcinogen call (Species: HAMSTER, Strain/Sex: SYRIAN/FEMALE, Route: SUBCUTANEOUS, 1, 5, 10, 20 MG/KG ONCE ADMINISTERED TO MOTHERS ON DAY 15 OF GESTATION (STUDY DURATION: 59 WK), 1, 5, 10, 20 MG/KG ONCE ADMINISTERED TO MOTHERS ON DAY 15 OF GESTATION (STUDY DURATION: 59 WK), Tumor Site: Type of Lesion: NASAL CAVITY: ADENOCARCINOMA, ADRENAL GLAND: TUMOR): active; positive | carcinogen call (Species: HAMSTER, Strain/Sex: SYRIAN/FEMALE, Route: TRANSPLACENTAL, 50 MG/KG IN DISTILLED WATER ADMINISTERED INTRATRACHEALLY TO MOTHERS ON DAY 15 OF GESTATION (STUDY DURATION: 48 WK), Tumor Site: Type of Lesion: ADRENAL GLAND: TUMOR, COLON: TUMOR, LYMPHOID TISSUE: LYMPHOMA, Tumor Site: Type of Lesion: ADRENAL GLAND: TUMOR, COLON: TUMOR, LYMPHOID TISSUE: LYMPHOMA): active; positive | carcinogen call (Species: HAMSTER, Strain/Sex: SYRIAN/MALE, Route: INTRATRACHEAL, 0.05, 5, 50 MG/KG ONCE ADMINISTERED TO MOTHERS ON DAY 15 OF GESTATION (STUDY DURATION: 59 WK), 0.05, 5, 50 MG/KG ONCE ADMINISTERED TO MOTHERS ON DAY 15 OF GESTATION (STUDY DURATION: 59 WK), Tumor Site: Type of Lesion: NASAL CAVITY: ADENOCARCINOMA, ADRENAL GLAND: TUMOR): active; positive | carcinogen call (Species: HAMSTER, Strain/Sex: SYRIAN/MALE, Route: SUBCUTANEOUS, 1, 5, 10, 20 MG/KG ONCE ADMINISTERED TO MOTHERS ON DAY 15 OF GESTATION (STUDY DURATION: 59 WK), 1, 5, 10, 20 MG/KG ONCE ADMINISTERED TO MOTHERS ON DAY 15 OF GESTATION (STUDY DURATION: 59 WK), Tumor Site: Type of Lesion: NASAL CAVITY: ADENOCARCINOMA, ADRENAL GLAND: TUMOR): active; positive | carcinogen call (Species: HAMSTER, Strain/Sex: SYRIAN/MALE, Route: TRANSPLACENTAL, 50 MG/KG IN DISTILLED WATER ADMINISTERED INTRATRACHEALLY TO MOTHERS ON DAY 15 OF GESTATION (STUDY DURATION: 48 WK), Tumor Site: Type of Lesion: NASAL CAVITY: TUMOR): active; positive | carcinogen call (Species: MOUSE, Strain/Sex: C3B6F1/FEMALE, Route: TRANSPLACENTAL, 100 MG/KG (0.5 MMOL) IN 0.9% STERILE SALINE ADMINISTERED INTRAPERITONEALLY ON DAYS 14, 16 AND 18 OF GESTATION (STUDY): inactive; negative | carcinogen call (Species: MOUSE, Strain/Sex: C3B6F1/MALE, Route: TRANSPLACENTAL, 100 MG/KG (0.5 MMOL) IN 0.9% STERILE SALINE ADMINISTERED INTRAPERITONEALLY ON DAYS 14, 16 AND 18 OF GESTATION (STUDY, Tumor Site: Type of Lesion: LIVER: HEPATOCELLULAR ADENOMA OR CARCINOMA): active; positive | carcinogen call (Species: MOUSE, Strain/Sex: C3H/HE/FEMALE, Route: INTRAPERITONEAL, 100 MG/KG (0.5 MMOL) IN 0.9% STERILE SALINE ONCE ON DAYS 14, 16 AND 18 OF PREGNANCY (STUDY DURATION: 24 WK), Tumor Site: Type of Lesion: LUNG: TUMOR): active; positive | carcinogen call (Species: MOUSE, Strain/Sex: STRAIN-A/FEMALE, Route: GAVAGE, 1, 2, 3 UMOL IN 0.1 ML COTTONSEED OIL 1/WK FOR 8 WK (STUDY DURATION: 26 WK), 1, 2, 3 UMOL IN 0.1 ML COTTONSEED OIL 1/WK FOR 8 WK (STUDY DURATION: 26 WK), Tumor Site: Type of Lesion: LUNG: ADENOMA): active; positive | carcinogen call (Species: MOUSE, Strain/Sex: STRAIN-A/FEMALE, Route: INTRAPERITONEAL, 1, 2, 3 UMOL IN 0.1 ML COTTONSEED OIL 1/WK FOR 8 WK (STUDY DURATION: 26 WK), 1, 2, 3 UMOL IN 0.1 ML COTTONSEED OIL 1/WK FOR 8 WK (STUDY DURATION: 26 WK), Tumor Site: Type of Lesion: LUNG: ADENOMA): active; positive | carcinogen call (Species: MOUSE, Strain/Sex: STRAIN-A/FEMALE, Route: INTRAPERITONEAL, 5, 20 UMOL TOTAL DOSE ADMINISTERED IN SUBDOSES 3/WK FOR 7 WK (STUDY DURATION: 37 WK), 5, 20 UMOL TOTAL DOSE ADMINISTERED IN SUBDOSES 3/WK FOR 7 WK (STUDY DURATION: 37 WK), Tumor Site: Type of Lesion: LUNG: TUMOR): active; positive | carcinogen call (Species: MOUSE, Strain/Sex: STRAIN-A/FEMALE, Route: INTRAPERITONEAL, 20 UMOL MOUSE (TOTAL DOSE) ADMINISTERED IN 0.1 ML SALINE 3/WK (TOTAL 20 INJECTIONS) (STUDY DURATION: 37 WK), Tumor Site: Type of Lesion: LUNG: ADENOCARCINOMA, ADENOMA): active; positive | carcinogen call (Species: MOUSE, Strain/Sex: STRAIN-A/FEMALE, Route: TRANSPLACENTAL, 100 MG/KG (0.5 MMOL) IN 0.9% STERILE SALINE ADMINISTERED INTRAPERITONEALLY ON DAYS 14, 16 AND 18 OF GESTATION (STUDY, Tumor Site: Type of Lesion: LUNG: TUMOR): active; positive | carcinogen call (Species: MOUSE, Strain/Sex: STRAIN-A/MALE, Route: TRANSPLACENTAL, 100 MG/KG (0.5 MMOL) IN 0.9% STERILE SALINE ADMINISTERED INTRAPERITONEALLY ON DAYS 14, 16 AND 18 OF GESTATION (STUDY): inactive; negative | carcinogen call (Species: MOUSE, Strain/Sex: SWISS/FEMALE, Route: INTRAPERITONEAL, 50 MG/KG IN STERILE SALINE ADMINISTERED ON POSTNATAL D 1, 3, 5, 7 AND 10 (STUDY DURATION: 15 MO), Tumor Site: Type of Lesion: LIVER: HEPATOCELLULAR ADENOMA OR CARCINOMA, LUNG: TUMOR): active; positive | carcinogen call (Species: MOUSE, Strain/Sex: SWISS/FEMALE, Route: TRANSPLACENTAL, 100 MG/KG (0.5 MMOL) IN 0.9% STERILE SALINE ADMINISTERED INTRAPERITONEALLY ON DAYS 15, 17 AND 19 OF GESTATION (STUDY): inactive; negative | carcinogen call (Species: MOUSE, Strain/Sex: SWISS/MALE, Route: INTRAPERITONEAL, 50 MG/KG IN STERILE SALINE ADMINISTERED ON POSTNATAL D 1, 3, 5, 7 AND 10 (STUDY DURATION: 15 MO), Tumor Site: Type of Lesion: LIVER: HEPATOCELLULAR ADENOMA OR CARCINOMA, LUNG: TUMOR): active; positive | carcinogen call (Species: MOUSE, Strain/Sex: SWISS/MALE, Route: TRANSPLACENTAL, 100 MG/KG (0.5 MMOL) IN 0.9% STERILE SALINE ADMINISTERED INTRAPERITONEALLY ON DAYS 15, 17 AND 19 OF GESTATION (STUDY): inactive; negative | carcinogen call (Species: RAT, Strain/Sex: F344/FEMALE, Route: GAVAGE, 11 MG/WK FOR A TOTAL DOSE OF 1.3 MMOL (STUDY DYRATION: 50 WK), Tumor Site: Type of Lesion: LIVER: TUMOR, LUNG: TUMOR, NASAL MUCOSA: TUMOR, Tumor Site: Type of Lesion: LIVER: TUMOR, LUNG: TUMOR, NASAL MUCOSA: TUMOR): active; positive | carcinogen call (Species: RAT, Strain/Sex: F344/FEMALE, Route: INTRAVESICULAR, 5.5 MG IN 0.2 ML ETHANOL: DEIONIZED WATER (1:3) 2/WK FOR 30 WK (TOTAL DOSE 1.5 MMOL) (STUDY DURATION: LIFESPAN), Tumor Site: Type of Lesion: LUNG: TUMOR, LIVER: TUMOR): active; positive | carcinogen call (Species: RAT, Strain/Sex: F344/FEMALE, Route: SUBCUTANEOUS, 1, 3, 9 MMOL/KG BW (TOTAL DOSE) WITH SUBDOSES GIVEN 3/WK FOR 20 WK WITH A 2 WK INTERRUPTION AFTER 7 WK (STUDY DURATIO, 1, 3, 9 MMOL/KG BW (TOTAL DOSE) WITH SUBDOSES GIVEN 3/WK FOR 20 WK WITH A 2 WK INTERRUPTION AFTER 7 WK (STUDY DURATIO, Tumor Site: Type of Lesion: NASAL CAVITY: TUMORS, LUNG: TUMORS, LIVER: TUMORS, Tumor Site: Type of Lesion: NASAL CAVITY: TUMORS, LUNG: TUMORS, LIVER: TUMORS): active; positive | carcinogen call (Species: RAT, Strain/Sex: F344/MALE, Route: MUCOUS MEMBRANE, 0.3 ML OF A 15 MMOL WATER SOLUTION 1/D 3 D/WK FOR 1 WK THEN 1/D 5 D/WK FOR WK 2-4 THEN 2/D 5 D/WK FOR WK 5-61 (STUDY, Tumor Site: Type of Lesion: LUNG: ADENOSQUAMOUS CARCINOMA, ADENOCARCINOMA, ADENOMA, NASAL CAVITY: CARCINOMA, PAPILLOMA, ADENOMA, ORAL CAVITY: PAPILL, Tumor Site: Type of Lesion: LUNG: ADENOSQUAMOUS CARCINOMA, ADENOCARCINOMA, ADENOMA, NASAL CAVITY: CARCINOMA, PAPILLOMA, ADENOMA, ORAL CAVITY: PAPILL): active; positive | carcinogen call (Species: RAT, Strain/Sex: F344/MALE, Route: ORAL, 0.5, 1, 5 PPM IN DRINKING WATER FOR DURATION OF STUDY (TOTAL DOSE: 0; 0.073; 0.17; 0.68 MMOL/KG) (STUDY DURATION: 128, 0.5, 1, 5 PPM IN DRINKING WATER FOR DURATION OF STUDY (TOTAL DOSE: 0; 0.073; 0.17; 0.68 MMOL/KG) (STUDY DURATION: 128, Tumor Site: Type of Lesion: NASAL CAVITY: TUMOR, LIVER: ADENOMA, HEPATOMA, LUNG: ADENOMA, ADENOCARCINOMA, ADENOSQUAMOUS CARCINOMA, SQUAMOUS CELL CAR, Tumor Site: Type of Lesion: NASAL CAVITY: TUMOR, LIVER: ADENOMA, HEPATOMA, LUNG: ADENOMA, ADENOCARCINOMA, ADENOSQUAMOUS CARCINOMA, SQUAMOUS CELL CAR): active; positive | carcinogen call (Species: RAT, Strain/Sex: F344/MALE, Route: SUBCUTANEOUS, 1, 3, 9 MMOL/KG BW (TOTAL DOSE) WITH SUBDOSES GIVEN 3/WK FOR 20 WK WITH A 2 WK INTERRUPTION AFTER 7 WK (STUDY DURATIO, 1, 3, 9 MMOL/KG BW (TOTAL DOSE) WITH SUBDOSES GIVEN 3/WK FOR 20 WK WITH A 2 WK INTERRUPTION AFTER 7 WK (STUDY DURATIO, Tumor Site: Type of Lesion: NASAL CAVITY: TUMORS, LUNG: TUMORS, LIVER: TUMORS, Tumor Site: Type of Lesion: NASAL CAVITY: TUMORS, LUNG: TUMORS, LIVER: TUMORS): active; positive
